Laboratory results as given in ChEMBL document CHEMBL1201862, “PubChem BioAssay data set” (2004).
Calls of active or inactive are those of the source.

Assays:
[1] = ADAM10 inhibitors, peptide cleavage, dose response, biochemical, QFRET (AID 743254);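 also: ADAM10 enzyme with the DM2 quenched FRET peptide as substrate; EDANS fluorescence gain as the protease cuts the substrate; inhibitor potency against ADAM10 proteolytic activity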
[2] = molecular target: Disintegrin and metalloproteinase domain-containing protein 17 (Homo sapiens, UniProt P78536); assay: ADAM17 protease inhibitors, dose response, counter-screen for ADAM10 exosite inhibitor project, biochemical, quenched FRET substrate (AID 743253)
Sequence of Disintegrin and metalloproteinase domain-containing protein 17 (P78536 whole entry, the tested form may be a part): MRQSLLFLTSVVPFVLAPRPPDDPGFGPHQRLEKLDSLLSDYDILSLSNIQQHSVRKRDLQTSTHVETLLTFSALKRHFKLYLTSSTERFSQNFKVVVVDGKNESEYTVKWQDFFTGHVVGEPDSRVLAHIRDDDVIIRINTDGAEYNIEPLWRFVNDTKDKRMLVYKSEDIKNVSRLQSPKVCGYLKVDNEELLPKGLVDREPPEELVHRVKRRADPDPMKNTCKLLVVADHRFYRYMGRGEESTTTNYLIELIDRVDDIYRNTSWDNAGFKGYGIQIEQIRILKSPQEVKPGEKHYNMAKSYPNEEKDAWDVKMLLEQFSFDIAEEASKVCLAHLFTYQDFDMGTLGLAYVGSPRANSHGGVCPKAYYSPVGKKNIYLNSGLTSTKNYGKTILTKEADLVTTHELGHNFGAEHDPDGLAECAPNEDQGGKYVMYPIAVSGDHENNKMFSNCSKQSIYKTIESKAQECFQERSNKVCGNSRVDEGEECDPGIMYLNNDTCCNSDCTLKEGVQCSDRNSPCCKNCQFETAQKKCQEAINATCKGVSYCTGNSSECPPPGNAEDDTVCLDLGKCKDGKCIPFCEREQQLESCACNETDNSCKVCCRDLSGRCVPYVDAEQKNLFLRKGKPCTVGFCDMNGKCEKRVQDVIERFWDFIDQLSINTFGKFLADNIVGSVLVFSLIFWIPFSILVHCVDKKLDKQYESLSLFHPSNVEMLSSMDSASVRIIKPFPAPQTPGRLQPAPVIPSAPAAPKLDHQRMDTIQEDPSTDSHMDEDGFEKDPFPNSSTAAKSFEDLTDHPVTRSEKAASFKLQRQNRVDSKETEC

[3] = HEp-2 cell cytotoxicity, dose response, cytotoxicity control for RSV inhibitor project, HTS (AID 2410); format: functional; conditions: human respiratory syncytial virus
[4] = Luminescence Cell-Based Dose Retest to Confirm Inhibitors of Cancer Stem Cells. [Related pubchem assays (depositor defined):AID2717, AID2721]; format: functional; conditions: Homo sapiens
[5] = inhibitors of intracellular T. cruzi replication, confirmation, NIH3T3 host cells, beta-gal luminescence (AID 2044); format: functional, cell-based;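 also: intracellular parasites grown in NIH/3T3 mouse fibroblasts as host cells; luminescent beta-galactosidase reporter signal from transgenic T. cruzi replicating inside host cells; inhibitors lower the luminescence signal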
[6] = cytotoxicity toward NIH3T3 fibroblasts, dose response, counter-screen, cell-based, ATP luminescence, mouse fibroblasts (AID 2010); format: functional;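 also: cells exposed to compound for about 90 hours before reading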
Cytochrome P450 2C9 = Cytochrome P450 2C9 (Homo sapiens, UniProt P11712)
Sequence of Cytochrome P450 2C9 (P11712 whole entry): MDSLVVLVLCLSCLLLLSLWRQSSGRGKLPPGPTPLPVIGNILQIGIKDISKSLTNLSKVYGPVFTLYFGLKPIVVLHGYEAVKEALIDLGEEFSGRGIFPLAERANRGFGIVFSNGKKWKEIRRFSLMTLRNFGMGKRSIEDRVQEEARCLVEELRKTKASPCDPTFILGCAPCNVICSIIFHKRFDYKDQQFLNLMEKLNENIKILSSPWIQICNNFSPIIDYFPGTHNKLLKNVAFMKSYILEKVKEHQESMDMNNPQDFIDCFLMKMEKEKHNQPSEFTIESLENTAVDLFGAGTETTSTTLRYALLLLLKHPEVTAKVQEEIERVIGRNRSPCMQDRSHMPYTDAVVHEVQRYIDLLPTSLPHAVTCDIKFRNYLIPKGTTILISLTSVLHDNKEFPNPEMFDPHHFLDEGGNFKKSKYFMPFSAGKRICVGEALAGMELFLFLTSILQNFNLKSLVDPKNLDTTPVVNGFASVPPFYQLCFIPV

Estrogen receptor beta = Estrogen receptor beta (Homo sapiens, UniProt Q92731); assay: ERβ–SRC-3 coactivator interaction inhibitors, confirmation, orthogonal assay, biochemical, ELISA, streptavidin-HRP readout (AID 1060)
Sequence of Estrogen receptor beta (Q92731 whole entry): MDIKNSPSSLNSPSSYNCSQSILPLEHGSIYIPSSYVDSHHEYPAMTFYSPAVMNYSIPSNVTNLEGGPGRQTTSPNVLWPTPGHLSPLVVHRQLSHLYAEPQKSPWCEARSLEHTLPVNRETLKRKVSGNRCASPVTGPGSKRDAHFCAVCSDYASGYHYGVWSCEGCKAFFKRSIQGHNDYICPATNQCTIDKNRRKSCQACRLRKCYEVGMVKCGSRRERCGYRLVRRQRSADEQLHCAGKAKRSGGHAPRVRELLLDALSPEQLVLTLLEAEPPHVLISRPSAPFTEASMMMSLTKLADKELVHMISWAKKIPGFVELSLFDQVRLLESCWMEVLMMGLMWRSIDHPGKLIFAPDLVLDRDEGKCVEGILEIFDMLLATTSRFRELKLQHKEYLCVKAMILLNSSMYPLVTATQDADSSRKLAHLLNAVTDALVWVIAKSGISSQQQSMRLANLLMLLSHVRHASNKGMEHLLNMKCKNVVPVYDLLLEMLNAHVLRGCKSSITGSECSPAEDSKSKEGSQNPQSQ

Cytochrome P450 1A2 = molecular target: T1, Cytochrome P450 1A2 (Homo sapiens, UniProt P05177);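 also: PubChem cytochrome P450 panel assay, CYP1A2 panel member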
T1 sequence (P05177 whole entry): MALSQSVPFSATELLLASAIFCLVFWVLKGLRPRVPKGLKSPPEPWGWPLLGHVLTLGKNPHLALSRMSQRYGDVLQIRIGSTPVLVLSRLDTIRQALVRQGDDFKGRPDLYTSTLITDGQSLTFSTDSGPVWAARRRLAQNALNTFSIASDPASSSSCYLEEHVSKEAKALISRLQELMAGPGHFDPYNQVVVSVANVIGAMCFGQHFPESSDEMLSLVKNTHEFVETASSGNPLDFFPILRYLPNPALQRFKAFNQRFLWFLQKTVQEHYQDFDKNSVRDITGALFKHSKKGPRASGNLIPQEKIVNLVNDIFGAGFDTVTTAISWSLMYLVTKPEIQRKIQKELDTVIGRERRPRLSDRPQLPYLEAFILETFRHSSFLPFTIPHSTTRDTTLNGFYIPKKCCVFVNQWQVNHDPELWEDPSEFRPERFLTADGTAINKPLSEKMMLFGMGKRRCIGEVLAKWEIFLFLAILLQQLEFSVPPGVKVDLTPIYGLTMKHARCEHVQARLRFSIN

[7] = molecular target: E3 ubiquitin-protein ligase Mdm2 (Homo sapiens, UniProt Q00987); assay: enhancers of MDM2-luciferase reporter signal, concentration-effect titration, project on inhibitors of MDM2 ubiquitin ligase, cellular assay, luminescent readout, 384-well plate format (AID 1394); format: functional;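 also: MDM2 E3 inhibitors raise luminescence so EC50 is for signal enhancement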
Sequence of E3 ubiquitin-protein ligase Mdm2 (Q00987 whole entry): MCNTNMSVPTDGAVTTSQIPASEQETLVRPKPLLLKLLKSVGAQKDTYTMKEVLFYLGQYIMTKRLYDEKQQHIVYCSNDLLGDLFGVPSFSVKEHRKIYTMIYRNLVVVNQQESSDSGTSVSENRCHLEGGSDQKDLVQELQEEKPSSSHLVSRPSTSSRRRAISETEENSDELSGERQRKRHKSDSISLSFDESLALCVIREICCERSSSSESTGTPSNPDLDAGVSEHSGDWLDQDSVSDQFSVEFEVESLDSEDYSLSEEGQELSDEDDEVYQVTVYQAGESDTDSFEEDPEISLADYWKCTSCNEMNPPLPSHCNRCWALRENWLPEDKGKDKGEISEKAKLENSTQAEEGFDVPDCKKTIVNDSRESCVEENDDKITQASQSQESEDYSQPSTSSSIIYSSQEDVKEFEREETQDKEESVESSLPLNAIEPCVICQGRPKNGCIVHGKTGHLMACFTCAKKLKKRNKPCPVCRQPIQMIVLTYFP

[8] = molecular target: Peroxisome proliferator-activated receptor gamma/Nuclear receptor coactivator 1 (Homo sapiens, UniProt P37231); format: functional;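 also: agonist potency as compounds enhance coactivator SRC-1 recruitment to PPARgamma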
[9] = molecular target: Peroxisome proliferator-activated receptor gamma/Nuclear receptor coactivator 2 (Homo sapiens, UniProt P37231); format: functional;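 also: agonist potency for raising coactivator recruitment to the receptor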
Sequence of Peroxisome proliferator-activated receptor gamma/Nuclear receptor coactivator 2 (P37231 whole entry): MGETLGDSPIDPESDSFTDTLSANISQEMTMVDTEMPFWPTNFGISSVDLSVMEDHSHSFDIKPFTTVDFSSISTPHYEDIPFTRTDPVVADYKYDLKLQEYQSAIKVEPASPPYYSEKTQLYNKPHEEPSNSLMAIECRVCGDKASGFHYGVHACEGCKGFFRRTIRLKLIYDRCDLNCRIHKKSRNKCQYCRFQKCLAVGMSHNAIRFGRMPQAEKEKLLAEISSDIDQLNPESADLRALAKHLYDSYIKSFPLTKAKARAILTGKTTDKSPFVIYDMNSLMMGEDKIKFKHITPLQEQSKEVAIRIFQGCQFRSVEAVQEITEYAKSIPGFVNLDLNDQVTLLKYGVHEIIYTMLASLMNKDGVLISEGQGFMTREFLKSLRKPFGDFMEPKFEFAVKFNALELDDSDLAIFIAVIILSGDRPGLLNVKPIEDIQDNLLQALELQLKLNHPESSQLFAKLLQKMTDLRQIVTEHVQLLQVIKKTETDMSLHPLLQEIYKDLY
Sequence of Peroxisome proliferator-activated receptor gamma/Nuclear receptor coactivator 2 (Q15596 whole entry, further chain): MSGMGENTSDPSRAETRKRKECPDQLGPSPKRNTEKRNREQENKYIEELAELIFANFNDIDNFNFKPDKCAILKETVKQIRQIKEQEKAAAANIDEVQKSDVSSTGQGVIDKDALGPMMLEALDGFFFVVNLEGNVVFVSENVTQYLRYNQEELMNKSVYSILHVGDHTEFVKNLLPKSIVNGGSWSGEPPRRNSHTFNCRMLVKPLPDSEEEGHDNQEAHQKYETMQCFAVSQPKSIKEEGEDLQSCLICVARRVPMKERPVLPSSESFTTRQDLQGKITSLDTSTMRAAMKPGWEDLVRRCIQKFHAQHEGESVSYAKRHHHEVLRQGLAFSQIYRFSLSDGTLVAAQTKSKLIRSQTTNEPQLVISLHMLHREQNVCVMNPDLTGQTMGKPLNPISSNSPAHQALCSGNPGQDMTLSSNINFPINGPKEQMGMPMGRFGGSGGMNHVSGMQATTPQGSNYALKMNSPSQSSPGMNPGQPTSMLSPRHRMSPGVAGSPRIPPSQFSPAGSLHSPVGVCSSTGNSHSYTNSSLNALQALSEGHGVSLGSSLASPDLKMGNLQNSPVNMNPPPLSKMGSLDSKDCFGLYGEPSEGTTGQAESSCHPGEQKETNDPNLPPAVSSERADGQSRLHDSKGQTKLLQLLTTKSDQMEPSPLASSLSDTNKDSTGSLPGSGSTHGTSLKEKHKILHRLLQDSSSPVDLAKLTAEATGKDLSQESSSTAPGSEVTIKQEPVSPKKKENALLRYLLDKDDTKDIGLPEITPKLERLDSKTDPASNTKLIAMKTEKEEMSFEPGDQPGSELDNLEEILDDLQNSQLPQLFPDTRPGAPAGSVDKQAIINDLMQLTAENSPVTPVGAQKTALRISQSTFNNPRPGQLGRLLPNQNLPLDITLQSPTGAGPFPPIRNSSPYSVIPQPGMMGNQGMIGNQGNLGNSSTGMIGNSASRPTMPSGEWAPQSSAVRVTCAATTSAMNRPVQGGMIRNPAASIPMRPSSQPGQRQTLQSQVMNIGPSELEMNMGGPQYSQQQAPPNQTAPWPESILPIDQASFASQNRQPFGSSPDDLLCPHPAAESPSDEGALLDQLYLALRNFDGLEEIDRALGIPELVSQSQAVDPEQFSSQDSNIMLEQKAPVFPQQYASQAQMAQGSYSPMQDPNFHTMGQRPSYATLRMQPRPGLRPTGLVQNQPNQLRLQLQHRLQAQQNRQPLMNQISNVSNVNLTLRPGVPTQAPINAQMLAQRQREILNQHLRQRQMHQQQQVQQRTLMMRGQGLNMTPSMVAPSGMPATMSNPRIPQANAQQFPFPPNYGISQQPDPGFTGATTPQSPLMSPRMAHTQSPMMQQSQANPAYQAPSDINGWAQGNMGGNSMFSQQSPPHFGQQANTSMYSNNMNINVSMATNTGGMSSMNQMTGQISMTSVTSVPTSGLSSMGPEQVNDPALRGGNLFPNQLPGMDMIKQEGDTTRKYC

[10] = molecular target: T2, Rac GTPase-activating protein 1 (Homo sapiens, UniProt Q9H0H5); assay: MgcRacGAP GTPase-activating activity inhibitors, confirmation, biochemical, ADP Hunter fluorescence, primary and confirmatory (AID 624330); format: functional
T2 sequence (Q9H0H5 whole entry): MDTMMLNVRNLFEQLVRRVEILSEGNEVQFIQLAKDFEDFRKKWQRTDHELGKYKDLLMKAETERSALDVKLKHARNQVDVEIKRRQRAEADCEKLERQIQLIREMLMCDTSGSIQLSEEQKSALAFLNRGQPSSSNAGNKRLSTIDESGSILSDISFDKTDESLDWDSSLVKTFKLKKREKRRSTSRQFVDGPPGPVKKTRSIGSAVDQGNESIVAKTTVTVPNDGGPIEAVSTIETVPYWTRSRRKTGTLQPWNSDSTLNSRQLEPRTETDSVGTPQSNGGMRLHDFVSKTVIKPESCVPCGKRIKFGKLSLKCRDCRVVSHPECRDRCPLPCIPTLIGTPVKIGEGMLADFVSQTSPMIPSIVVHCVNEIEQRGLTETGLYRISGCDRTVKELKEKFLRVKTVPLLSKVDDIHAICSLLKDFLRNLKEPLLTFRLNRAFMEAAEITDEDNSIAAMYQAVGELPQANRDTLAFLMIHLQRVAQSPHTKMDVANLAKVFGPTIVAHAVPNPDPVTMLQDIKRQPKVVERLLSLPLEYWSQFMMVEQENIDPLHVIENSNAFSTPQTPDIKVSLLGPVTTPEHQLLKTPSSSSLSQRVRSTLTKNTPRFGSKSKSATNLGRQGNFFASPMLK

[11] = molecular target: Peroxisome proliferator-activated receptor gamma/Nuclear receptor coactivator 3 (Homo sapiens, UniProt P37231); format: functional;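 also: agonist potency for raising coactivator recruitment to the receptor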
[12] = molecular target: T3, Lytic switch protein BZLF1 (Epstein-Barr virus (strain B95-8) (HHV-4) (Human herpesvirus 4), UniProt P03206); assay: EBV ZTA inhibitors, dose response, counter-screen for EBNA-1 inhibitor project, biochemical, fluorescence polarization, Epstein-Barr virus, 1536-well (AID 2377); set-up: species or system human gammaherpesvirus 4;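 also: fluorescence polarization of Cy5-labelled ZRE DNA probe bound by purified Zta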
T3 sequence (P03206 whole entry): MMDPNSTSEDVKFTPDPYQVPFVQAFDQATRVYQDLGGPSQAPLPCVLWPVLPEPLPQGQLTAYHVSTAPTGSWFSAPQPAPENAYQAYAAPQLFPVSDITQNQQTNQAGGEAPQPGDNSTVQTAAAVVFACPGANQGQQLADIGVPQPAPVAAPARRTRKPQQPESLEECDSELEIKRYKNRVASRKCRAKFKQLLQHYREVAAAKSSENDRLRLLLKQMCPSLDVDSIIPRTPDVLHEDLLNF

[13] = molecular target: T4, Epstein-Barr nuclear antigen 1 (Epstein-Barr virus (strain B95-8) (HHV-4) (Human herpesvirus 4), UniProt P03211); assay: EBNA-1 inhibitors, dose response, biochemical, fluorescence polarization, 1536-well (AID 2381); set-up: species or system human gammaherpesvirus 4;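 also: fluorescence polarization of a Cy5 DNA probe bound by EBNA-1 protein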
T4 sequence (P03211 whole entry): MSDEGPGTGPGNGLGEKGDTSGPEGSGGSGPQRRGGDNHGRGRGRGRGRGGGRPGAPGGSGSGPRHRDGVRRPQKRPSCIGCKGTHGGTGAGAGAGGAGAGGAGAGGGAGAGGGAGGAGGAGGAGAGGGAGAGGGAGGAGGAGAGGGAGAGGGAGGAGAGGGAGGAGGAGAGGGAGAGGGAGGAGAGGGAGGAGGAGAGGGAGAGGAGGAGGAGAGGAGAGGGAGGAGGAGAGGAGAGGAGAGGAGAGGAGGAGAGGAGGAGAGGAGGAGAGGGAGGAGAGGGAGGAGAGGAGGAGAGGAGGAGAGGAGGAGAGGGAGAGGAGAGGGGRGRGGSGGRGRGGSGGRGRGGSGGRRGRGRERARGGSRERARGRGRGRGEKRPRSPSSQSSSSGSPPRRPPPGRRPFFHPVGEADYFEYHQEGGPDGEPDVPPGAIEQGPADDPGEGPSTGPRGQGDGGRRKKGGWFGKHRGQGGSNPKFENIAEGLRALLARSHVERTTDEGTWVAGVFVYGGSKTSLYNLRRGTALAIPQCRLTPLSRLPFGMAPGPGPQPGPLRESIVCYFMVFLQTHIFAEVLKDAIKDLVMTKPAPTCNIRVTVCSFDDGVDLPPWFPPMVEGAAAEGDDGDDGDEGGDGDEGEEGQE

[14] = molecular target: T5, Oxysterols receptor LXR-beta (Homo sapiens, UniProt P55055); assay: LXR agonists, Gal4 luciferase reporter, dose response, counter-screen for ssDAF-12 agonist project, cell-based, luminescence, HEK293, S. stercoralis campaign (AID 720737); format: functional; conditions: read-out: IC50 (the source's name)
T5 sequence (P55055 whole entry): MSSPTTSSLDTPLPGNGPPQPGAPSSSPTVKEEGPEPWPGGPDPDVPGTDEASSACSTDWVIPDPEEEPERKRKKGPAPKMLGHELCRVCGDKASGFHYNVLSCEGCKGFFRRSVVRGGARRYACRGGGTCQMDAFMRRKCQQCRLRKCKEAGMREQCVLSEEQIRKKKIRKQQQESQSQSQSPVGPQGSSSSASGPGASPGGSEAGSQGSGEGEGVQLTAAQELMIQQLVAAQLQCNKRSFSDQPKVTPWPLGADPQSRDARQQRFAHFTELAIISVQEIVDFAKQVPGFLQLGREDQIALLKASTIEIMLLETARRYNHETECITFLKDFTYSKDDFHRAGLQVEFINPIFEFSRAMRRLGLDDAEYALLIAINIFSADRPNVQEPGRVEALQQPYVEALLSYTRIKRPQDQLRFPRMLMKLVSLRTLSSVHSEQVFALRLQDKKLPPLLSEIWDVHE

[15] = Luminescence-based cell-based high throughput dose response assay to identify activators of the DAF-12 from the parasite S. stercoralis (ssDAF-12).; format: functional
[16] = cytotoxicity in KRAS-transformed pancreatic duct cells, primary screen, cell-based, fluorescence, HTS (AID 431); format: functional; conditions: Homo sapiens;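 also: cell line used: HPDE-C7K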
[17] = cytotoxicity in HPDE-C7 cells, cell-based, fluorescence, HTS (AID 430); format: functional; conditions: Homo sapiens

CC(/C=C1\SC(=O)N(CC(=O)Nc2cccc(O)c2)C1=O)=C\c1ccccc1
IC50 [1]: 10.2 µM (inactive)
IC50 [2]: > 69.5 µM (inactive)
CC50 [3]: 13.9 µM (active)
AC50 [4]: 4.04 µM (active)

O=C(CN(Cc1cccs1)S(=O)(=O)c1ccc(S(=O)(=O)NC2CCCCC2)cc1)Nc1ccccc1
EC50 [5]: 2.08 µM (active)
EC50 [6]: > 60 µM (not active)
IC50 [1]: 7.69 µM (active)
IC50 [2]: > 69.5 µM (inactive)

CCN1CCN(Cc2ccc(NC(=O)Nc3cccs3)cc2)CC1
AC50 (Cytochrome P450 2C9): 7.94 µM (inconclusive)
IC50 (Estrogen receptor beta): 0.41 µM (not active)
AC50 (Cytochrome P450 1A2): 12.6 µM (inconclusive)

COc1ccc(C2C(C(=O)N3CCN(C)CC3)c3cc(OC)c(OC)cc3C(=O)N2C)cc1 (stereo not given)
EC50 [7]: 2.94 µM (not active)

COC(=O)c1[nH]c2cc(OC)c(OC)cc2c1NC(=O)Oc1ccccc1
EC50 [8]: 97.7 µM (not active)
EC50 [9]: 90.7 µM (not active)
IC50 [10]: 28.8 µM (active)
EC50 [11]: > 79.4 µM (not active)

CCOC(=O)c1sc(NC(=O)COc2ccc3c(c2)OCO3)nc1C
IC50 [12]: > 111 µM (not active)
IC50 [13]: 7.18 µM (active)

CN(C)c1cc(C(F)(F)F)nc(-c2ccccn2)n1
EC50 [7]: 4.16 µM (not active)

CCOc1ccc(OCC)c(NC(=O)C(NS(=O)(=O)c2ccc3c(c2)oc(=O)n3C)C(C)C)c1 (stereo not given)
IC50 [12]: > 111 µM (not active)
IC50 [13]: > 5.47 µM (active)

Oc1ccccc1-c1cc(-c2ccccc2Cl)[nH]n1
EC50 [14]: > 67.5 µM (inactive)
IC50 [15]: > 67.5 µM (inactive)

O=C(c1ccc(F)cc1)N1CCC(N2CCCCCC2)CC1
EC50 [16]: > 20 µM (not active)
EC50 [17]: > 20 µM (not active)
